Tests used:
[1] = Cryopreserved hepatocyte stability, human; format: in vitro ADME; details: pooled cryopreserved hepatocytes, read-out: Mean intrinsic clearance
Experimental: (§1) Formulae Clint(tissue clearance) mL/min/kg=[0.693/t½ (min)]×[1/microsomal protein concentration mg/mL]×[mg microsomes/g liver]×[g liver/kg body weight] […] The incubations were performed at 37° C. with 100 μL, samples taken from the incubation, at 0, 10, 20, 45 and 90 minutes, and reactions terminated by addition of 100 μL of acetonitrile containing carbamazepine as analytical internal standard. […] Half-life values were calculated from the relationship T1/2 (min)=−0.693/λ • where λ was the slope of the Ln concentration vs time curve. • Standard compounds testosterone, midazolam and 4-methylumbelliferone are included in the assay design.
(§2) Clint(Tissue Clearance) mL/min/kg=[0.693/t½(min)]×[1/hepatocyte concentration (million cells/mL)]×[million cells/g liver]×[g liver/kg body weight] Clint(Hepatic clearance) mL/min/kg=hepatic blood flow×Clint/(hepatic blood flow+Clint) Hepatic extraction ratio(Eh)=Clint(Hepatic clearance) mL/min/kg/hepatic blood flow (mL/min/kg)

CYP2C9 = CYP2C9 (Homo sapiens (Human), UniProt P11712); assay: CYP450 time-dependent inhibition, CYP2C9; format: in vitro ADME
Experimental: CYP450 time-dependent inhibition (TDI) assays were performed with test compound at six test concentrations, 0.062 μM to 15 μM (n=2). The test compounds was pre-incubated for 30 minutes with pooled human hepatic microsomes in 0.1 M Tris buffer, pH 7.4, at 37° C. in the presence of cofactor NADPH. A parallel series of incubations (n=2) were prepared with no pre-incubation. Probe substrates were then added (with additional cofactor) and further incubated for the times specified. Concentrations of probe substrates used in the incubations have been optimised to maintain first order reaction conditions.
Reactions were terminated with acetonitrile containing analytical internal standard (carbamazepine), samples then centrifuged to remove microsomal protein and analysed using optimised LC/MS-MS conditions. The MS data were normalised to internal standard and compared to the appropriate solvent controls to determine the amount of metabolite formed from the probe substrate relative to the “uninhibited” controls. The results are quoted as % inhibition.
Variation in probe turnover between plate wells means that inhibition values recorded below 10-15% may not be significant.

B-Raf (V600e) = B-Raf (V600e) (Homo sapiens (Human), UniProt P15056, V600E); assay: KINOMEscan enzyme binding assay, B-Raf (V600e)
Experimental: Kinase enzyme binding activities of compounds disclosed herein may be determined using a proprietary assay which measures active site-directed competition binding to an immobilized ligand (Fabian, M. A. et al., Nature Biotechnol., 2005, 23:329-336). These assays may be conducted by DiscoverX (formerly Ambit; San Diego, Calif.). The percentage inhibition produced by incubation with a test compound may be calculated relative to the non-inhibited control.

[2] = Analysis of metabolites in hepatocytes; format: in vitro ADME, rat, dog, Cynomolgus macaque, human; details: 10 μM, hepatocytes of four species, 0, 60 and 90 minutes
Experimental: Studies were conducted by BioFocus (Saffron Walden, UK) to determine the metabolic fate of the compound of Example 2 following incubation with rat, dog, Cynomolgus macaque or human hepatocytes.
Sample replicates were pooled prior to analysis.
Potential metabolites were identified using time-of-flight (TOF) and triple quadruple (TQ) mass spectrometers.

[3] = Hepatic microsomal stability, dog; format: in vitro ADME; details: pooled liver microsomes, read-out: Mean intrinsic clearance
Experimental: (§3) • Microsomal stability assays were performed with incubations of test compounds at 0.1 μM (n=2, final DMSO concentration 0.25%), and carried out using pooled human, […], rat and Cynomolgus macaque hepatic microsomes from Xenotech (Lots 1210153, 0810143 and 1110042, respectively) at 0.25 mg protein/mL in the presence of cofactor, NADPH. The incubations were performed at 37° C. with 100 μL aliquots taken from the incubation, at 0, 2, 5, 10 and 20 minutes (and, in the case of Cynomolgus macaque hepatic microsomes, 40 minutes) and reactions terminated by addition of 100 μL of acetonitrile containing carbamazepine as analytical internal standard. […] Half-life values were calculated from the relationship T1/2 (min)=−0.693/λ • where λ was the slope of the Ln concentration vs time curve. • The in vitro intrinsic clearance, Clint (mL/min/kg), was calculated and scaled to hepatic extraction ratios using the following scaling parameters and formulae.
(§4) Formulae Clint(tissue clearance) mL/min/kg=[0.693/t½ (min)]×[1/microsomal protein concentration mg/mL]×[mg microsomes/g liver]×[g liver/kg body weight] […] Half-life values were calculated from the relationship T1/2 (min)=−0.693/λ • where λ was the slope of the Ln concentration vs time curve. • Standard compounds testosterone, midazolam and 4-methylumbelliferone are included in the assay design.

[4] = Cryopreserved hepatocyte stability, rat; format: in vitro ADME; details: pooled cryopreserved hepatocytes, read-out: Mean intrinsic clearance
Experimental: as §1, §2

c-Src = c-Src (Homo sapiens (Human), UniProt P12931); assay: c-Src enzyme inhibition (FRET); format: biochemical
Outline: (§5)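 Z-LYTE FRET peptide assay: c-Src (3000 ng/mL) or Syk (2000 ng/mL) preincubated 2 h at room temperature with compound (4–0.004 μg/mL working solutions). Reaction was 1 h with peptide (8 μM solution) and ATP (800 μM c-Src, 60 μM Syk solutions), followed by 1 h protease development. Phosphorylation was read as the coumarin/fluorescein emission ratio.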

Syk = Syk (Homo sapiens (Human), UniProt P43405); assay: Syk enzyme inhibition (FRET); format: biochemical
Outline: as §5

[5] = tested on: 71 receptors and 26 enzymes; assay: Cerep Diversity Profile; format: binding; details: 300 nM; any of 71 receptors and 26 enzymes
[6] = Hepatic microsomal stability, human; format: in vitro ADME; details: pooled liver microsomes, read-out: Mean intrinsic clearance
Experimental: as §3, §4

Chain of CYP2C9 (P11712 whole entry): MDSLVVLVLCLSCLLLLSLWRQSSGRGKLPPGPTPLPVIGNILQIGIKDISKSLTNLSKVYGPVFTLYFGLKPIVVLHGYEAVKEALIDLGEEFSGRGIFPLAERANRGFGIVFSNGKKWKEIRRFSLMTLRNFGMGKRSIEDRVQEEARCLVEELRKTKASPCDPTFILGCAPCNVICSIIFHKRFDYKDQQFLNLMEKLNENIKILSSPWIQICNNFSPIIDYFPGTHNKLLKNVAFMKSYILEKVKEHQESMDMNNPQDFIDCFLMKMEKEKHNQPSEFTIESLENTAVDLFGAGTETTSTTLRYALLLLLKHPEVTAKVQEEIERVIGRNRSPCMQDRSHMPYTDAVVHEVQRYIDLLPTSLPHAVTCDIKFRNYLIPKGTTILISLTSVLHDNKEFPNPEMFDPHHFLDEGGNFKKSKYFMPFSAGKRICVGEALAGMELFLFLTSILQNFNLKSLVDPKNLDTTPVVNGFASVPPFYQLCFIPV
Chain of B-Raf (V600e) (P15056 whole entry V600E): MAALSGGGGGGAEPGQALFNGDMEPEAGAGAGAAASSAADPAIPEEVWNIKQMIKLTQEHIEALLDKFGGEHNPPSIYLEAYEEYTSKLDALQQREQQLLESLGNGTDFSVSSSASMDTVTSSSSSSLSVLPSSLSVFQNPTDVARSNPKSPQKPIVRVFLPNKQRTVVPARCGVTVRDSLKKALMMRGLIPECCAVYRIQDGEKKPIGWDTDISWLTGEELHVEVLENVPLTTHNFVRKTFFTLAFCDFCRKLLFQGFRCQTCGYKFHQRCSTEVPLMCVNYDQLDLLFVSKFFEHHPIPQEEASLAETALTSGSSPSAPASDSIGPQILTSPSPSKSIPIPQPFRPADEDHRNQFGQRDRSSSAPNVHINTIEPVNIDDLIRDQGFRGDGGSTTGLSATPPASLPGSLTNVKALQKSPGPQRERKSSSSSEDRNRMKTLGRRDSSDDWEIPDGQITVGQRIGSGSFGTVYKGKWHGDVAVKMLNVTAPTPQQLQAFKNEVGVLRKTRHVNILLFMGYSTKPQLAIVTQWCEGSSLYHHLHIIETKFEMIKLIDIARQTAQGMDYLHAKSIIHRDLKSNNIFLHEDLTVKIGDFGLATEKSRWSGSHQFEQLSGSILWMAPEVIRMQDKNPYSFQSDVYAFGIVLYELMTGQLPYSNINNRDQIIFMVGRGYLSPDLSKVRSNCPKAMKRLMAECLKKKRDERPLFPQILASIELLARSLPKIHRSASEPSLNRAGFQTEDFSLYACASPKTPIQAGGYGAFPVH
Chain of c-Src (P12931 whole entry, looked up): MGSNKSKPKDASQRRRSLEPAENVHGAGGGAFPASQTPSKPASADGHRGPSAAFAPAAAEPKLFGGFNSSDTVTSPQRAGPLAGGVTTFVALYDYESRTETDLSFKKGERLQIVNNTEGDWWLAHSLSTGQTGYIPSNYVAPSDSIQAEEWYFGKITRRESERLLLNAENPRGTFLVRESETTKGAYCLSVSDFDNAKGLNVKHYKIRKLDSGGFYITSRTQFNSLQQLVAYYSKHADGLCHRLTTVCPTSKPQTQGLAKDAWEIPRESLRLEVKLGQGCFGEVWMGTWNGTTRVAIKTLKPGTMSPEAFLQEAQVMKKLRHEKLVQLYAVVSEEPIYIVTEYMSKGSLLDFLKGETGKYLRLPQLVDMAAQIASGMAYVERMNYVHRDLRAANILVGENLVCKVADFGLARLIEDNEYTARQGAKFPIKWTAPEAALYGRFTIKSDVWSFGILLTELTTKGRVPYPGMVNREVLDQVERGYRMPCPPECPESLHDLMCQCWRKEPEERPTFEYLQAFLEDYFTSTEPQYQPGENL

Work on `C#Cc1cc(Nc2nccc(Oc3ccc(NC(=O)Nc4cc(C(C)(C)C)nn4-c4ccc(C)cc4)c4ccccc34)n2)cc(C(=O)NCCOCCOCCOC)c1` [Example 2, 3-((4-((4-(3-(3-(tert-Butyl)-1-(p-tolyl)-1H-pyrazol-5-yl)ureido)naphthalen-1-yl)oxy)pyrimidin-2-yl)amino)-5-ethynyl-N-(2-(2-(2-methoxyethoxy)ethoxy)ethyl)-benzamide] yielded a hepatocyte CLint at 0.1 μM [1] of 37 µL/min/1e6 cells, an IC50 (CYP2C9; CYP2C9, 0 min preincubation) greater than 15000 nM and an IC50 (CYP2C9; CYP2C9, 30 min preincubation) greater than 15000 nM. For the same compound, the inhibition at 0 min, 15 µM (CYP2C9; human, pooled human liver microsomes, pH 7.4, CYP2C9, 0 min preincubation, 15 μM, read-out: 15 μM % Inh) was 35%, the inhibition at 30 min, 15 µM (CYP2C9; human, pooled human liver microsomes, pH 7.4, CYP2C9, 30 min preincubation, 15 μM, read-out: 15 μM % Inh) was 37% and the “effect on the binding of B-Raf (V600e) to its standard ligand” value (B-Raf (V600e)) was “did not have any effect”. For the same compound, the “total metabolites identified in all studies” value [2] was “nine”, the microsomal CLint at 0.1 μM [3] was greater than 554 µL/min/mg and the hepatocyte CLint at 0.1 μM [4] was 49 µL/min/1e6 cells. For the same compound, the IC50 (c-Src) was 11 nM, the IC50 (Syk) was 50 nM and the “inhibition of the control specific binding in the receptor binding assays or enzyme assays” value [5] was “less than 25%”. For the same compound, the microsomal CLint at 0.1 μM [6] was greater than 554 µL/min/mg.
